Laboratory results as given in US20140294753A1, “NOVEL USE OF GANODERMIC ACIDS FOR TREATING CANCER” (DOUBLE CRANE BIOTECHNOLOGY CO. LTD, priority 2013, published 2014).

Key:
[1] = tested on: human non-small cell lung cancer cell line PC-9; assay: Cell activity analysis (acid phosphatase, ACP); settings: PC-9, 72 h, read-out: IC50 (50% cell activity inhibited)
Protocol: (§9) Each cell lines were cultured and maintained in Dulbecco's modified Eagle media (DMEM) supplemented with 1% fetal bovine serum (FBS), 100 IU/ml penicillin, 100 ng/ml streptomycin, 2 mM glutamine, non-essential amino acids and sodium pyruvate in 5% CO2 at 37° C. Cells were grown and maintained in Petri dishes (each was 10 cm in diameter) until reached 80% confluence, then were subject to cell passages. […] Collected the suspended cells, added 2 mL fresh culture media to neutralize any remaining activity of trypsin. Adjusted the cell density by adding appropriate amounts of culture medium to the cell suspension, which was then used to seed the culture plates. The plates were then returned to the incubator and cultured in accordance with the steps described above.
(§10) In operation, cultured cells in each well were washed with PBS (200 μl), then a reacting solution (100 μl) (10 mM p-NPP, 0.1 M sodium acetate, 0.1% Triton X-100, pH 5.5) was added and allowed to react with the cells for 30-40 min at 37° C. The reaction was subsequently stopped with a basic solution (10 μl, 0.1N NaOH). […]

[2] = tested on: gefitinib-resistant human non-small cell lung cancer cell line PC-9 (PC9-IR); assay: Cell activity analysis (acid phosphatase, ACP)
Protocol: as §9, §10

[3] = tested on: human lung adenocarcinoma cell line A549; assay: Cell activity analysis (acid phosphatase, ACP); format: cell-based; settings: Lung Cancer A549, treated at least 48 hrs, read-out: IC50 (50% cell activity inhibited)
Protocol: (§1) Cell lines used in the present disclosure include human lung adenocarcinoma cell line A549, human hepatocarcinoma cell line Huh7, human colon carcinoma cell line HCT116, human non-small cell lung cancer cell line PC-9, gefitinib-resistant human non-small cell lung cancer cell line PC-9 (PC9-IR), and human breast carcinoma cell line MDA-MB-231.
(§2) Each cell lines were cultured and maintained in Dulbecco's modified Eagle media (DMEM) supplemented with 1% fetal bovine serum (FBS), 100 IU/ml penicillin, 100 ng/ml streptomycin, 2 mM glutamine, non-essential amino acids and sodium pyruvate in 5% CO2 at 37° C. Cells were grown and maintained in Petri dishes (each was 10 cm in diameter) until reached 80% confluence, then were subject to cell passages. Briefly, cells were first washed with phosphate buffer solution (PBS, 3 ml) once, then treated with 0.05% Trypsin/0.025% EDTA solution (1 mL) for 5 min so that the attached cells become suspended. Collected the suspended cells, added 2 mL fresh culture media to neutralize any remaining activity of trypsin. Adjusted the cell density by adding appropriate amounts of culture medium to the cell suspension, which was then used to seed the culture plates. The plates were then returned to the incubator and cultured in accordance with the steps described above.
(§3) Cells were seeded in 96-well plates with a density of 3,000 cells/well and cultured in accordance with the procedures described above.
(§4) Acid Phosphatase analysis
(§5) Cell activity may be derived from the acid phosphatase (ACP) activity of a cell.
(§6) In operation, cultured cells in each well were washed with PBS (200 μl), then a reacting solution (100 μl) (10 mM p-NPP, 0.1 M sodium acetate, 0.1% Triton X-100, pH 5.5) was added and allowed to react with the cells for 30-40 min at 37° C. The reaction was subsequently stopped with a basic solution (10 μl, 0.1N NaOH). Adsorption at the wavelength of 405 nm was then measured, and the concentration that inhibited 50% cell activity (IC50) was derived from the absorbance measurement.
(§7) The effects of GMAS on various cancer cell lines, including colon cancer, hepatoma, breast cancer, and lung cancer, were respectively assessed by cell activity analysis using ACP activity as an indicator. Results are depicted in FIG. 1.

[4] = tested on: human hepatocarcinoma cell line Huh7; assay: Cell activity analysis (acid phosphatase, ACP); format: cell-based; settings: Hepatoma Huh-7, treated at least 48 hrs, read-out: IC50 (50% cell activity inhibited)
Protocol: as §1, §2, §3, §4, §5, §6, §7

[5] = tested on: human breast carcinoma cell line MDA-MB-231; assay: Cell activity analysis (acid phosphatase, ACP); format: cell-based; settings: Breast Cancer MDA-MB-231, treated at least 48 hrs, read-out: IC50 (50% cell activity inhibited)
Protocol: as §1, §2, §3, §4, §5, §6, §7

[6] = tested on: human colon carcinoma cell line HCT116; assay: Cell activity analysis (acid phosphatase, ACP); format: cell-based; settings: Colon Cancer HCT-116, treated at least 48 hrs, read-out: IC50 (50% cell activity inhibited)
Protocol: as §1, §2, §3, §4, §5, §6, §7

HCT-116 cells = assay: Wound healing assay (cell migration); format: cell-based, human; settings: up to 72 hrs
Protocol: (§8) Wound healing assay is one of the earliest developed methods to study directional cell migration in vitro, by mimicking cell migration during wound healing in vivo. The basic steps involve creating a “wound” in a cell monolayer, capturing the images at the beginning and at regular intervals during cell migration to close the wound, and comparing the images to quantify the migration rate of the cells.
Briefly, the assay was carried out using IBIDI culture-inserts and 24-well plates (IBIDI GmbH, Martinsried, Germany). The culture-inserts were respectively placed into each well. Aliquots of […] containing 3×10^4 cells (PC-9, MDA-MB-231 or CL1-5 cells) were added into the two reservoirs of the same insert and incubated for 8 hrs, then the inserts were gently removed from each wells, then culture medium (500 μL, 10% FBS) containing GMAS (25 or 50 μM) or solvent vehicle (i.e., the control) was added to each well. The cells in the culture wells were photographed respectively at 0, 12, 24, 48 and 72 hrs using an inverted microscope. Finally, the migration area or the “wound” area was quantified by Metamorph software (Molecular Devices).
The effect of GMAS on the migration capability of colon cancer cells was assessed using the wound healing assay as described in the section of “Materials and Methods”. Results are illustrated in FIG. 3.

PC-9 cells = assay: Wound healing assay (cell migration); format: cell-based, human; settings: 5 μM GMAS; lung cancer cells (PC-9, FIG. 4)
Protocol: as §8
Briefly, the assay was carried out using IBIDI culture-inserts and 24-well plates (IBIDI GmbH, Martinsried, Germany). The culture-inserts were respectively placed into each well. Aliquots of […] containing 3×10^4 cells (PC-9, MDA-MB-231 or CL1-5 cells) were added into the two reservoirs of the same insert and incubated for 8 hrs, then the inserts were gently removed from each wells, then culture medium (500 μL, […]) or solvent vehicle (i.e., the control) was added to each well. The cells in the culture wells were photographed respectively at 0, 12, 24, 48 and 72 hrs using an inverted microscope. Finally, the migration area or the “wound” area was quantified by Metamorph software (Molecular Devices).

With `CC(=O)O[C@H]1CC[C@]2(C)C3=CC[C@]4(C)[C@@H]([C@H](C)CC/C=C(\C)C(=O)O)C[C@H](OC(C)=O)[C@@]4(C)C3=CC[C@H]2C1(C)C` [GMAS, ganodermic acid S] the IC50 [1] was 56.1 µM, the IC50 ([2]; Homo sapiens, 72 h, read-out: IC50 (50% cell activity inhibited)) was 62.8 µM and the “Resistant Ratio (PC9-IR/PC9)” value ([2]; IC50 of PC9-IR divided by IC50 of PC-9) was 1.1. It also gave an IC50 [3] of 7.9 µM, an IC50 [4] of 19.1 µM and an IC50 [5] of 20.4 µM. The IC50 [6] was 8 µM, the “wound closing phenomenon (migration of colon cancer cells)” value (HCT-116 cells; 25 μM GMAS) was “slightly inhibited” and the “wound closing phenomenon (migration of colon cancer cells)” value (HCT-116 cells; 50 μM GMAS) was “significantly suppressed”. The “reduction of the migrated area as compared with control” value (PC-9 cells) was 50%.
